Measured values: patent EP0659751A1, “Optically active azole derivatives, their production and use” (TAKEDA CHEMICAL INDUSTRIES, LTD., priority 1993, dated 1995)

Tested on: Candida albicans TA
Test: protective effect against experimental infection in mice
Assay type: in vivo, Crj:CDF₁ mice
Conditions: po, 168 h; mice inoculated i.v. with minimum lethal dose of Candida albicans TA; suspension in 0.5% CMC administered orally once immediately after infection; Reed and Muench method from survival rate 7 days after infection
Method: The protective effects of the compound of the present invention against the experimental infection in mice are shown in the following Table 1. Test Method: Five-week-old Crj:CDF₁ mice were inoculated with the minimum lethal dose of Candida albicans TA intravenously. The test compound was suspended in a solution of 0.5% sodium carboxymethylcellulose (CMC). The suspension was administered orally once immediately after infection. The activity was expressed in terms of ED₅₀ values calculated by the Reed and Muench method from the survival rate 7 days after infection.

| SMILES | ED50 |
| --- | --- |
| C[C@@H](n1ncn(-c2ccc(N3CCN(c4ccc(OC(F)(F)C(F)F)cc4)CC3)cc2)c1=O)[C@](O)(Cn1cncn1)c1ccc(F)cc1F [Example 15, 2-[(1R,2R)-2-(2,4-difluorophenyl)-2-hydroxy-1-methyl-3-(1H-1,2,4-triazol-1-yl)propyl]-4-[4-[4-[4-(1,1,2,2-tetrafluoroethoxy)phenyl]-1-piperazinyl]phenyl]-3(2H,4H)-1,2,4-triazolone] | 2.8 mg/kg |
| C[C@@H](n1ncn(-c2ccc(OCC(F)(F)C(F)F)cc2)c1=O)[C@](O)(Cn1cncn1)c1ccccc1F [Example 16, 2-[(1R,2R)-2-(2-fluorophenyl)-2-hydroxy-1-methyl-3-(1H-1,2,4-triazol-1-yl)propyl]-4-[4-(2,2,3,3-tetrafluoropropoxy)phenyl]-3(2H,4H)-1,2,4-triazolone] | 0.25 mg/kg |
| C[C@@H](n1ncn(-c2ccc(C(F)(F)F)cc2)c1=O)[C@](O)(Cn1cncn1)c1ccccc1F [Example 17, 2-[(1R,2R)-2-(2-fluorophenyl)-2-hydroxy-1-methyl-3-(1H-1,2,4-triazol-1-yl)propyl]-4-(4-trifluoromethylphenyl)-3(2H,4H)-1,2,4-triazolone] | 0.22 mg/kg |
| C[C@@H](n1ncn(-c2ccc(OC(F)(F)F)cc2)c1=O)[C@](O)(Cn1cncn1)c1ccccc1F [Example 18, 2-[(1R,2R)-2-(2-fluorophenyl)-2-hydroxy-1-methyl-3-(1H-1,2,4-triazol-1-yl)propyl]-4-(4-trifluoromethoxyphenyl)-3(2H,4H)-1,2,4-triazolone] | 0.18 mg/kg |
| C[C@@H](n1ncn(-c2ccc(OCC(F)(F)F)cc2)c1=O)[C@](O)(Cn1cncn1)c1ccccc1F [Example 19, 2-[(1R,2R)-2-(2-fluorophenyl)-2-hydroxy-1-methyl-3-(1H-1,2,4-triazol-1-yl)propyl]-4-[4-(2,2,2-trifluoroethoxy)phenyl]-3(2H,4H)-1,2,4-triazolone] | 0.18 mg/kg |
| C[C@@H](n1ncn(-c2ccc(OC(F)(F)C(F)F)cc2)c1=O)[C@](O)(Cn1cncn1)c1ccccc1F [Example 20, 2-[(1R,2R)-2-(2-fluorophenyl)-2-hydroxy-1-methyl-3-(1H-1,2,4-triazol-1-yl)propyl]-4-[4-(1,1,2,2-tetrafluoroethoxy)phenyl]-3(2H,4H)-1,2,4-triazolone] | 0.18 mg/kg |
| Cc1nn([C@H](C)[C@](O)(Cn2cncn2)c2ccccc2F)c(=O)n1-c1ccc(OC(F)(F)C(F)F)cc1 [Example 21, 2-[(1R,2R)-2-(2-fluorophenyl)-2-hydroxy-1-methyl-3-(1H-1,2,4-triazol-1-yl)propyl]-5-methyl-4-[4-(1,1,2,2-tetrafluoroethoxy)phenyl]-3(2H,4H)-1,2,4-triazolone] | 0.21 mg/kg |
| C[C@@H](n1cnn(-c2ccc(OC(F)(F)C(F)F)cc2)c1=O)[C@](O)(Cn1cncn1)c1ccccc1F [Example 22, 4-[(1R,2R)-2-(2-fluorophenyl)-2-hydroxy-1-methyl-3-(1H-1,2,4-triazol-1-yl)propyl]-2-[4-(1,1,2,2-tetrafluoroethoxy)phenyl]-3(2H,4H)-1,2,4-triazolone] | < 0.13 mg/kg |
| C[C@@H](n1cnn(-c2ccc(OCC(F)(F)C(F)F)cc2)c1=O)[C@](O)(Cn1cncn1)c1ccccc1F [Example 23, 4-[(1R,2R)-2-(2-fluorophenyl)-2-hydroxy-1-methyl-3-(1H-1,2,4-triazol-1-yl)propyl]-2-[4-(2,2,3,3-tetrafluoropropoxy)phenyl]-3(2H,4H)-1,2,4-triazolone] | 0.16 mg/kg |
| C[C@@H](n1ncn(-c2ccc(OC(F)(F)C(F)F)cc2)c1=O)[C@](O)(Cn1cncn1)c1ccc(F)cc1 [Example 25, 2-[(1R,2R)-2-(4-fluorophenyl)-2-hydroxy-1-methyl-3-(1H-1,2,4-triazol-1-yl)propyl]-4-[4-(1,1,2,2-tetrafluoroethoxy)phenyl]-3(2H,4H)-1,2,4-triazolone] | 0.65 mg/kg |
| Cc1nn([C@H](C)[C@](O)(Cn2cncn2)c2ccc(F)cc2)c(=O)n1-c1ccc(OC(F)(F)C(F)F)cc1 [Example 26, 2-[(1R,2R)-2-(4-fluorophenyl)-2-hydroxy-1-methyl-3-(1H-1,2,4-triazol-1-yl)propyl]-5-methyl-4-[4-(1,1,2,2-tetrafluoroethoxy)phenyl]-3(2H,4H)-1,2,4-triazolone] | 0.35 mg/kg |
| C[C@@H](n1cnn(-c2ccc(OC(F)(F)C(F)F)cc2)c1=O)[C@](O)(Cn1cncn1)c1ccc(F)cc1 [Example 27, 4-[(1R,2R)-2-(4-fluorophenyl)-2-hydroxy-1-methyl-3-(1H-1,2,4-triazol-1-yl)propyl]-2-[4-(1,1,2,2-tetrafluoroethoxy)phenyl]-3(2H,4H)-1,2,4-triazolone] | 0.56 mg/kg |
| C[C@@H](n1cnn(-c2ccc(OCC(F)(F)C(F)F)cc2)c1=O)[C@](O)(Cn1cncn1)c1ccc(F)cc1 [Example 28, 4-[(1R,2R)-2-(4-fluorophenyl)-2-hydroxy-1-methyl-3-(1H-1,2,4-triazol-1-yl)propyl]-2-[4-(2,2,3,3-tetrafluoropropoxy)phenyl]-3(2H,4H)-1,2,4-triazolone] | 0.71 mg/kg |
| Cc1nn(-c2ccc(OC(F)(F)C(F)F)cc2)c(=O)n1[C@H](C)[C@](O)(Cn1cncn1)c1ccc(F)cc1F [Example 29, 4-[(1R,2R)-2-(2,4-difluorophenyl)-2-hydroxy-1-methyl-3-(1H-1,2,4-triazol-1-yl)propyl]-5-methyl-2-[4-(1,1,2,2-tetrafluoroethoxy)phenyl]-3(2H,4H)-1,2,4-triazolone] | 2 mg/kg |
